Assay results published in patent US20080109040A1, “METHOD OF TREATING ARRHYTHMIAS” (priority 2002, published 2008).
Read-outs that look alike come from different tables or passages of the source.

System: Purkinje fibers
Set-up: species or system canine
Conditions: for Amplitude (phase 0) / Overshoot / RMP: BCL = 500 msec
Experimental: Dogs weighing 20-25 kg were anticoagulated with heparin and anesthetized with pentobarbital (30-35 mg/kg, i.v.). The chest was opened via a left thoracotomy, the heart excised and placed in a cold cardioplegic solution ([K^+]o=8 mmol/L, 4° C.). Free running Purkinje fibers were isolated from the left and right ventricles. The preparations were placed in a tissue bath (5 ml volume with flow rate of 12 ml/min) and allowed to equilibrate for at least 30 min while superfused with an oxygenated Tyrode's solution (pH=7.35, t^0=37±0.5° C.) and paced at a basic cycle length (BCL) of 1 Hz using point stimulation. The composition of the Tyrode's solution was as following (in mM): NaCl 129, KCl 4, NaH2PO4 0.9, NaHCO3 20, CaCl2 1.8, MgSO4 0.5, and D-glucose 5.5.
Action potential recordings: Transmembrane potentials were recorded using standard glass microelectrodes filled with 2.7 M KCl (10 to 20 MΩ DC resistance) connected to a high input-impedance amplification system (World Precision Instruments, Sarasota, Fla., USA).
Control recordings were obtained after a 30 min equilibration period. Increasing concentrations of ranolazine (1, 5, 10, 50, and 100 μM) were evaluated, with recordings started 20 minutes after the addition of each concentration of the drug. The rate-dependence of ranolazine's actions were evaluated by recording action potentials at basic cycle lengths (BCL) of 300, 500, 800, 1000, 2000, and 5000 msec. In this report only BCLs of 500 and 2000 msec are presented as representative of relatively rapid and slow pacing rates.
Because low extracellular K^+ is known to promote drug-induced APD prolongation and early afterdepolarizations, we determined the effects of ranolazine in the presence of normal (4 mM) and low (3 mM) [K^+]o.
In the final phase, we evaluate the effects of ranolazine on EADs induced by d-sotalol (100 μM), a fairly specific IKr blocker.

[1] = ranolazine 1.0 μM, [K+]0 = 3.0 mM
[2] = ranolazine 1.0 μM, [K+]0 = 4.0 mM
[3] = ranolazine 5.0 μM, [K+]0 = 3.0 mM
[4] = ranolazine 5.0 μM, [K+]0 = 4.0 mM
[5] = ranolazine 10.0 μM, [K+]0 = 3.0 mM
[6] = ranolazine 10.0 μM, [K+]0 = 4.0 mM
[7] = ranolazine 50.0 μM, [K+]0 = 3.0 mM
[8] = ranolazine 50.0 μM, [K+]0 = 4.0 mM
[9] = ranolazine 100.0 μM, [K+]0 = 3.0 mM
[10] = ranolazine 100.0 μM, [K+]0 = 4.0 mM

What does the source list for `COc1ccccc1OCC(O)CN1CCN(CC(=O)Nc2c(C)cccc2C)CC1` (racemic) [ranolazine, N-(2,6-dimethylphenyl)-4-[2-hydroxy-3-(2-methoxyphenoxy)propyl]-1-piperazineacetamide]?
Lowest concentration suppressing EADs induced by d-sotalol: 5 micromolar/L; Amplitude (phase 0) [1]: 132 ± 6; Overshoot [1]: 40 ± 5; RMP [1]: −92 ± 1; Amplitude (phase 0) [2]: 120 ± 9; Overshoot [2]: 32 ± 7; RMP [2]: −90 ± 2; Amplitude (phase 0) [3]: 130 ± 5; Overshoot [3]: 38 ± 4; RMP [3]: −92 ± 1; Amplitude (phase 0) [4]: 124 ± 3; Overshoot [4]: 34 ± 7; RMP [4]: −90 ± 2; Purkinje fibers in which d-sotalol-induced EADs were abolished (ranolazine 5 μM, d-sotalol 100 μM): 4 out of 4; Amplitude (phase 0) [5]: 128 ± 4; Overshoot [5]: 37 ± 4; RMP [5]: −92 ± 1; Amplitude (phase 0) [6]: 122 ± 7; Overshoot [6]: 32 ± 6; RMP [6]: −90 ± 3; Amplitude (phase 0) [7]: 121 ± 7; Overshoot [7]: 29 ± 6; RMP [7]: −92 ± 1; Amplitude (phase 0) [8]: 117 ± 7; Overshoot [8]: 28 ± 7; RMP [8]: −89 ± 3; Amplitude (phase 0) [9]: 114 ± 7; Overshoot [9]: 24 ± 7; RMP [9]: −90 ± 2; Amplitude (phase 0) [10]: 106 ± 12; Overshoot [10]: 19 ± 11; RMP [10]: −87 ± 3; Effect on APD (ranolazine 1-10 μM, [K+]o 4 mM): either no effect or a relatively small abbreviation; Effect on Vmax (ranolazine 50 and 100 μM): significant reduction; Effect on APD90 (ranolazine 50 and 100 μM, [K+]o 4 mM): markedly abbreviated at slow, but not at rapid pacing rates; Effect on APD50 (ranolazine 50 and 100 μM, rapid and slow rates, [K+]o 4 mM): significantly abbreviated
